# Laboratory results: patent US20100267765A1, “Pharmaceutical Compositions and Methods for CCR5 Antagonists” (priority 2007, published 2010)
# Columns and labels:
# Type in all cases: in vivo, human
# [1] = test system: HIV-1 (CXCR4 using viral population); test: Example 1: HIV-1 RNA viral load reduction after 24 weeks; conditions: for Treatment difference in VL (95% confidence interval) / Mean VL reduction: 24 weeks
# Source text: The baseline HIV-1 RNA count was taken prior to the first dose (Day 1) and at multiple time points during the 24-week study period.
# [2] = test system: fasting lipid parameters; test: MERIT study: fasting lipoprotein profile (total cholesterol, HDL, LDL, triglycerides); conditions: for HDL cholesterol levels on treatment: 48 weeks
# Source text: (§1) The MERIT study design included a fasting metabolic assessment at baseline and at Weeks 24 and 48 or at early study discontinuation, to evaluate the fasted lipid values in the MERIT study and their potential effect on cardiovascular risk.
# (§2) For a 50% smoking rate scenario (which approximates to the smoking rate seen in the DAD Study-Friis-Møller N, et al. N Engl J Med 2003; 349:1993-2003), smoking status (yes/no) was randomly imputed to the study population 500 times, by sampling from a binomial distribution with a probability of success of 0.5. Smoking status was assumed to remain constant for the duration of the study.
# [3] = test system: total cholesterol/HDL ratio; test: MERIT study: total cholesterol/HDL ratio; conditions: with Combivir; ARV-naive R5 HIV-1 patients; P=0.005 between groups
# Source text: as §1, §2
# [4] = test system: HDL cholesterol; test: Example 1: fasting HDL cholesterol after 24 weeks, OBT plus maraviroc vs OBT plus placebo; conditions: for Numbers of individuals with maximum % increase in HDL cholesterol in range 10 to >30 (sum, within sensitivity range of assay) / Numbers of individuals with maximum % increase in HDL cholesterol relative to baseline 0-5% / Numbers of individuals with maximum % increase in HDL cholesterol relative to baseline 5-<10% / Numbers of individuals with maximum % increase in HDL cholesterol relative to baseline 10-<20% / Numbers of individuals with maximum % increase in HDL cholesterol relative to baseline 20-<30% / Numbers of individuals with maximum % increase in HDL cholesterol relative to baseline <0% / Numbers of individuals with maximum % increase in HDL cholesterol relative to baseline ≧30% / Mean % Change in HDL / Mean % difference from Group1 (placebo) (95% Confidence Interval) in HDL: 24 weeks
# Method: (§3) The eligible patients were randomised into three groups based on the drug regimens they received.
# (§4) Prior to the first dose (Day 1), a fasting assessment was made, in which the following was measured and taken as the baseline measurement: total cholesterol, HDL, LDL, triglycerides, glucose and glycosolated haemoglobin.
# HDL as part of a lipid profile was measured by Covance laboratories (Indianapolis, Ind.).
# (§5) After 24 weeks of treatment or early termination, the same lipid parameters (in particular HDL levels) were measured again.
# [5] = test system: LDL cholesterol; test: Example 1: fasting LDL cholesterol after 24 weeks, OBT plus maraviroc vs OBT plus placebo
# Method: as §3, §4, §5
# [6] = MERIT study: 10-year coronary heart disease risk by Framingham equation; conditions: for Absolute CHD 10-year risk (mean [SD]): Framingham equation, simulated smoking rate 50%, with Combivir
# Source text: as §2
# [7] = test system: LDL cholesterol; test: MERIT study: on-treatment fasting LDL cholesterol vs NCEP cutpoints; conditions: with Combivir
# Source text: as §1, §2
# [8] = Group 2: OBT plus maraviroc 150 or 300 mg po QD, N = 63
# [9] = Group 2: OBT plus maraviroc QD, n = 45
# [10] = Group 3: OBT plus maraviroc 150 or 300 mg po BID, N = 61
# [11] = Group 3: OBT plus maraviroc BID, n = 48
# [12] = patients already above threshold at baseline excluded, P<0.0001
compound,measurement,setting,value
"(N-{(1S)-3-[3-isopropyl-5-methyl-4H-1,2,4-triazole-4-yl]-exo-8-azabicyclo[3.2.1]oct-8-yl}-1-phenylpropyl)-4,4-difluorocyclohexanecarboxamide) [maraviroc]",Treatment difference in VL (95% confidence interval),[1]; Group 2: OBT plus maraviroc QD vs Group 1 (placebo),+0.06 log10 copies/mL
same,Mean VL reduction,[1]; Group 2: OBT plus maraviroc QD,−0.91 log10 copies/mL
same,Treatment difference in VL (95% confidence interval),[1]; Group 3: OBT plus maraviroc BID vs Group 1 (placebo),−0.23 log10 copies/mL
same,Mean VL reduction,[1]; Group 3: OBT plus maraviroc BID,−1.20 log10 copies/mL
same,Reduction in viral load (VL) in HIV patients with CXCR4 using viral population,"[1]; after 24 weeks, vs Group 1",no statistically significant reduction
same,HDL cholesterol levels on treatment,[2]; with Combivir,improved
same,Median decrease in the total cholesterol/HDL ratio,[3],−0.54
same,Increase in HDL-C levels following treatment,"[4]; 300 mg BID maraviroc, Tables 2a, 3a",clear dose-related increase
same,"Numbers of individuals with maximum % increase in HDL cholesterol in range 10 to >30 (sum, within sensitivity range of assay)",[4]; [8],18
same,Numbers of individuals with maximum % increase in HDL cholesterol relative to baseline 0-5%,[4]; [8],6
same,Numbers of individuals with maximum % increase in HDL cholesterol relative to baseline 5-<10%,[4]; [8],4
same,Numbers of individuals with maximum % increase in HDL cholesterol relative to baseline 10-<20%,[4]; [8],7
same,Numbers of individuals with maximum % increase in HDL cholesterol relative to baseline 20-<30%,[4]; [8],2
same,Numbers of individuals with maximum % increase in HDL cholesterol relative to baseline <0%,[4]; [8],17
same,Numbers of individuals with maximum % increase in HDL cholesterol relative to baseline ≧30%,[4]; [8],9
same,Mean % Change in HDL,[4]; [9],13.1%
same,Mean % difference from Group1 (placebo) (95% Confidence Interval) in HDL,[4]; [9],"10.8 (−3.4, 25.0) %"
same,"Numbers of individuals with maximum % increase in HDL cholesterol in range 10 to >30 (sum, within sensitivity range of assay)",[4]; [10],28
same,Numbers of individuals with maximum % increase in HDL cholesterol relative to baseline 0-5%,[4]; [10],5
same,Numbers of individuals with maximum % increase in HDL cholesterol relative to baseline 5-<10%,[4]; [10],1
same,Numbers of individuals with maximum % increase in HDL cholesterol relative to baseline 10-<20%,[4]; [10],9
same,Numbers of individuals with maximum % increase in HDL cholesterol relative to baseline 20-<30%,[4]; [10],8
same,Numbers of individuals with maximum % increase in HDL cholesterol relative to baseline <0%,[4]; [10],14
same,Numbers of individuals with maximum % increase in HDL cholesterol relative to baseline ≧30%,[4]; [10],11
same,Mean % Change in HDL,[4]; [11],17.4%
same,Mean % difference from Group1 (placebo) (95% Confidence Interval) in HDL,[4]; [11],"15.1 (1.1, 29.1) %"
same,"Numbers of individuals with maximum % increase in LDL cholesterol in range 10 to >30 (sum, within sensitivity range of assay)",[5]; [8],20
same,Numbers of individuals with maximum % increase in LDL cholesterol relative to baseline 0-5%,[5]; [8],2
same,Numbers of individuals with maximum % increase in LDL cholesterol relative to baseline 5-<10%,[5]; [8],5
same,Numbers of individuals with maximum % increase in LDL cholesterol relative to baseline 10-<20%,[5]; [8],9
same,Numbers of individuals with maximum % increase in LDL cholesterol relative to baseline 20-<30%,[5]; [8],4
same,Numbers of individuals with maximum % increase in LDL cholesterol relative to baseline <0%,[5]; [8],11
same,Numbers of individuals with maximum % increase in LDL cholesterol relative to baseline ≧30%,[5]; [8],7
same,"Numbers of individuals with maximum % increase in LDL cholesterol in range 10 to >30 (sum, within sensitivity range of assay)",[5]; [10],18
same,Numbers of individuals with maximum % increase in LDL cholesterol relative to baseline 0-5%,[5]; [10],4
same,Numbers of individuals with maximum % increase in LDL cholesterol relative to baseline 5-<10%,[5]; [10],1
same,Numbers of individuals with maximum % increase in LDL cholesterol relative to baseline 10-<20%,[5]; [10],5
same,Numbers of individuals with maximum % increase in LDL cholesterol relative to baseline 20-<30%,[5]; [10],3
same,Numbers of individuals with maximum % increase in LDL cholesterol relative to baseline <0%,[5]; [10],18
same,Numbers of individuals with maximum % increase in LDL cholesterol relative to baseline ≧30%,[5]; [10],10
same,LDL levels after treatment compared with placebo (Group 1),[5]; Table 1a,no increase over placebo
O=C1Nc2ccc(Cl)cc2[C@@](C#CC2CC2)(C(F)(F)F)O1 [efavirenz],Absolute CHD 10-year risk (mean [SD]),[6]; Week 24,3.0%
same,Absolute CHD 10-year risk (mean [SD]),[6]; Week 48,3.3%
same,Relative risk of having a CHD event within 10 years,"[6]; efavirenz group vs maraviroc group at Week 24 and Week 48, smoking rate 50%, FIG. 5b",consistently higher
same,Number of patients who initiated LDL-lowering therapy during the study,[7],six
same,Relation of change in LDL cholesterol to baseline LDL cholesterol,[7]; FIG. 2b,directly related
same,Patients with high on-treatment LDL cholesterol level (≧160 mg/dL) at both Week 24 and Week 48 (%),[7]; P=0.007,2.9%
same,Patients with high on-treatment LDL cholesterol level (≧160 mg/dL) at both Week 24 and Week 48 (n/N),[7]; P=0.007,10/343
same,Patients who developed LDL cholesterol levels during the study that were ≧160 mg/dL (%),[7]; [12],9%
same,Patients who developed LDL cholesterol levels during the study that were ≧160 mg/dL (n/N),[7]; [12],31/343
same,Percentage of patients with increases in total cholesterol and LDL cholesterol levels at some point after baseline to ≧130 mg/dL,"[2]; efavirenz compared with maraviroc, P<0.0001, FIG. 3b",greater percentage
same,"Median maximum changes from baseline in total cholesterol, HDL cholesterol, LDL cholesterol and triglyceride levels","[2]; efavirenz group compared with maraviroc group, with Combivir, FIG. 1b",significantly greater
same,HDL cholesterol levels on treatment,[2]; with Combivir,improved
same,Median decrease in the total cholesterol/HDL ratio,[3],−0.43
